{"source": "patent US20240287046A1", "about": "“COMPOUNDS AND RADIOLIGANDS FOR TARGETING NEUROTENSIN RECEPTOR AND USES THEREOF” (Full-Life Technologies HK Limited, priority 2022, published 2024)", "test_system": "ASPC-1 tumor-bearing mice", "experiment": "Biodistribution of radionuclide labeled complexes in ASPC-1 tumor-bearing mice", "type": "in vivo, BALB/c nude mice", "protocol": "The BALB/c nude mice (Charles River, Beijing) were utilized to establish the xenografted model for biodistribution study. All animal care and experimental procedure were performed by following the animal protocols approved by the ethics committee of China Institute of Radiation Protection.\nBriefly, each mouse was inoculated with approximately 4×10^6 ASPC-1 cells (human pancreatic cancer cell line) or HT-29 cells (human colorectal adenocarcinoma cell line) expressing human NTSR-1 by subcutaneous injection at rear flank. After inoculation, the xenografted tumors were allowed to grow for ˜2-4 weeks till the tumor weight reached to about 0.05 to 0.50 g (0.20 g in average).\nBiodistribution studies were performed by administrating the radionuclide labeled test compound at a dose of ˜30-50 μCi (100 μL in 0.9% NaCl, ˜1.11-1.85 MBq, with specific activity 30-250 μCi/nmol) to each animal through tail vein injection.\nAt different time points after the administration, the mice treated with each compound were euthanized. The tissues and organs of the animals in each group were collected, excised, weighed, and analyzed in a PerkinElmer 2480 WIZARD2γ counter, and the percent injected dose (% ID) and % ID/g of each organ or tissue were calculated.", "data": [{"smiles": "COc1cccc(OC)c1-c1cc(C(=O)NC2(C(=O)O)C3CC4CC(C3)CC2C4)nn1-c1ccc(C(=O)N(CCCNC(=O)CN2CCN(CC(=O)[O-])CCN(CC(=O)[O-])CCN(CC(=O)[O-])CC2)CCCN(C)C)cc1C(C)C.[177Lu+3]", "note": "(stereo not shown) [^177Lu-C-5, reference compound]", "values": [{"measurement": "uptake ratio Tumor/Blood", "setting": "1 h", "result": 4.7}, {"measurement": "uptake ratio Tumor/Kidney", "setting": "1 h", "result": 17.2}, {"measurement": "uptake ratio Tumor/Liver", "setting": "1 h", "result": 17.9}, {"measurement": "uptake ratio Tumor/Lung", "setting": "1 h", "result": 9.0}, {"measurement": "uptake ratio Tumor/Blood", "setting": "4 h", "result": 60.5}, {"measurement": "uptake ratio Tumor/Kidney", "setting": "4 h", "result": 40.0}, {"measurement": "uptake ratio Tumor/Liver", "setting": "4 h", "result": 16.6}, {"measurement": "uptake ratio Tumor/Lung", "setting": "4 h", "result": 43.3}, {"measurement": "% ID/g (1 h) Blood", "setting": "Blood, 1 h", "result": "3.18 ± 0.24", "unit": "% ID/g"}, {"measurement": "% ID/g (4 h) Blood", "setting": "Blood, 4 h", "result": "0.22 ± 0.07", "unit": "% ID/g"}, {"measurement": "% ID/g (1 h) Femur", "setting": "Femur, 1 h", "result": "0.53 ± 0.04", "unit": "% ID/g"}, {"measurement": "% ID/g (4 h) Femur", "setting": "Femur, 4 h", "result": "0.13 ± 0.1", "unit": "% ID/g"}, {"measurement": "% ID/g (1 h) Heart", "setting": "Heart, 1 h", "result": "1.46 ± 0.24", "unit": "% ID/g"}, {"measurement": "% ID/g (4 h) Heart", "setting": "Heart, 4 h", "result": "0.16 ± 0.06", "unit": "% ID/g"}, {"measurement": "% ID/g (1 h) Intestine", "setting": "Intestine, 1 h", "result": "1.28 ± 0.11", "unit": "% ID/g"}, {"measurement": "% ID/g (4 h) Intestine", "setting": "Intestine, 4 h", "result": "0.42 ± 0.16", "unit": "% ID/g"}, {"measurement": "% ID/g (1 h) Kidney", "setting": "Kidney, 1 h", "result": "0.87 ± 0.05", "unit": "% ID/g"}, {"measurement": "% ID/g (4 h) Kidney", "setting": "Kidney, 4 h", "result": "0.33 ± 0.09", "unit": "% ID/g"}, {"measurement": "% ID/g (1 h) Liver", "setting": "Liver, 1 h", "result": "0.84 ± 0.43", "unit": "% ID/g"}, {"measurement": "% ID/g (4 h) Liver", "setting": "Liver, 4 h", "result": "0.79 ± 0.08", "unit": "% ID/g"}, {"measurement": "% ID/g (1 h) Lung", "setting": "Lung, 1 h", "result": "1.66 ± 0.93", "unit": "% ID/g"}, {"measurement": "% ID/g (4 h) Lung", "setting": "Lung, 4 h", "result": "0.3 ± 0.15", "unit": "% ID/g"}, {"measurement": "% ID/g (1 h) Muscle", "setting": "Muscle, 1 h", "result": "0.31 ± 0.05", "unit": "% ID/g"}, {"measurement": "% ID/g (4 h) Muscle", "setting": "Muscle, 4 h", "result": "0.06 ± 0.02", "unit": "% ID/g"}, {"measurement": "% ID/g (1 h) Pancreas", "setting": "Pancreas, 1 h", "result": "0.26 ± 0.05", "unit": "% ID/g"}, {"measurement": "% ID/g (4 h) Pancreas", "setting": "Pancreas, 4 h", "result": "0.06 ± 0.02", "unit": "% ID/g"}, {"measurement": "% ID/g (1 h) Spleen", "setting": "Spleen, 1 h", "result": "0.26 ± 0.05", "unit": "% ID/g"}, {"measurement": "% ID/g (4 h) Spleen", "setting": "Spleen, 4 h", "result": "0.08 ± 0.03", "unit": "% ID/g"}, {"measurement": "% ID/g (1 h) Stomach", "setting": "Stomach, 1 h", "result": "0.55 ± 0.13", "unit": "% ID/g"}, {"measurement": "% ID/g (4 h) Stomach", "setting": "Stomach, 4 h", "result": "0.4 ± 0.22", "unit": "% ID/g"}, {"measurement": "% ID/g (1 h) Tumor", "setting": "Tumor, 1 h", "result": "14.96 ± 6.57", "unit": "% ID/g"}, {"measurement": "% ID/g (4 h) Tumor", "setting": "Tumor, 4 h", "result": "13.06 ± 6.54", "unit": "% ID/g"}]}, {"smiles": "COc1cccc(OC)c1-c1cc(C(=O)NC2(C(=O)O)C3CC4CC(C3)CC2C4)nn1-c1ccc(N(C)CCCN(C)CCCN(C)C(=O)CN2CCN(CC(=O)[O-])CCN(CC(=O)[O-])CCN(CC(=O)[O-])CC2)cc1C(C)C.[177Lu+3]", "note": "(stereo not shown) [^177Lu-I-1]", "values": [{"measurement": "tumor AUC over 72 hours compared to ^177Lu—C2", "result": "significantly higher tumor AUC"}, {"measurement": "% ID/g (4 h) Blood", "setting": "Blood, 4 h", "result": "2.08 ± 0.14", "unit": "% ID/g"}, {"measurement": "% ID/g (24 h) Blood", "setting": "Blood, 24 h", "result": "0.06 ± 0.02", "unit": "% ID/g"}, {"measurement": "% ID/g (72 h) Blood", "setting": "Blood, 72 h", "result": "0.04 ± 0.01", "unit": "% ID/g"}, {"measurement": "% ID/g (4 h) Femur", "setting": "Femur, 4 h", "result": "0.72 ± 0.05", "unit": "% ID/g"}, {"measurement": "% ID/g (24 h) Femur", "setting": "Femur, 24 h", "result": "0.19 ± 0.09", "unit": "% ID/g"}, {"measurement": "% ID/g (72 h) Femur", "setting": "Femur, 72 h", "result": "0.15 ± 0.06", "unit": "% ID/g"}, {"measurement": "% ID/g (4 h) Heart", "setting": "Heart, 4 h", "result": "0.68 ± 0.5", "unit": "% ID/g"}, {"measurement": "% ID/g (24 h) Heart", "setting": "Heart, 24 h", "result": "0.24 ± 0.1", "unit": "% ID/g"}, {"measurement": "% ID/g (72 h) Heart", "setting": "Heart, 72 h", "result": "0.18 ± 0.03", "unit": "% ID/g"}, {"measurement": "% ID/g (4 h) Intestine", "setting": "Intestine, 4 h", "result": "0.98 ± 0.2", "unit": "% ID/g"}, {"measurement": "% ID/g (24 h) Intestine", "setting": "Intestine, 24 h", "result": "0.37 ± 0.07", "unit": "% ID/g"}, {"measurement": "% ID/g (72 h) Intestine", "setting": "Intestine, 72 h", "result": "0.51 ± 0.1", "unit": "% ID/g"}, {"measurement": "% ID/g (4 h) Kidney", "setting": "Kidney, 4 h", "result": "3.66 ± 2.51", "unit": "% ID/g"}, {"measurement": "% ID/g (24 h) Kidney", "setting": "Kidney, 24 h", "result": "3.16 ± 1.81", "unit": "% ID/g"}, {"measurement": "% ID/g (72 h) Kidney", "setting": "Kidney, 72 h", "result": "1.3 ± 0.61", "unit": "% ID/g"}, {"measurement": "% ID/g (4 h) Liver", "setting": "Liver, 4 h", "result": "1.81 ± 0.43", "unit": "% ID/g"}, {"measurement": "% ID/g (24 h) Liver", "setting": "Liver, 24 h", "result": "0.97 ± 0.45", "unit": "% ID/g"}, {"measurement": "% ID/g (72 h) Liver", "setting": "Liver, 72 h", "result": "1.06 ± 0.46", "unit": "% ID/g"}, {"measurement": "% ID/g (4 h) Lung", "setting": "Lung, 4 h", "result": "0.64 ± 0.1", "unit": "% ID/g"}, {"measurement": "% ID/g (24 h) Lung", "setting": "Lung, 24 h", "result": "0.31 ± 10.1", "unit": "% ID/g"}, {"measurement": "% ID/g (72 h) Lung", "setting": "Lung, 72 h", "result": "0.33 ± 0.28", "unit": "% ID/g"}, {"measurement": "% ID/g (4 h) Muscle", "setting": "Muscle, 4 h", "result": "0.47 ± 0.25", "unit": "% ID/g"}, {"measurement": "% ID/g (24 h) Muscle", "setting": "Muscle, 24 h", "result": "0.13 ± 0.05", "unit": "% ID/g"}, {"measurement": "% ID/g (72 h) Muscle", "setting": "Muscle, 72 h", "result": "0.06 ± 0.01", "unit": "% ID/g"}, {"measurement": "% ID/g (4 h) Pancreas", "setting": "Pancreas, 4 h", "result": "0.41 ± 0.28", "unit": "% ID/g"}, {"measurement": "% ID/g (24 h) Pancreas", "setting": "Pancreas, 24 h", "result": "0.18 ± 0.09", "unit": "% ID/g"}, {"measurement": "% ID/g (72 h) Pancreas", "setting": "Pancreas, 72 h", "result": "0.07 ± 0.04", "unit": "% ID/g"}, {"measurement": "% ID/g (4 h) Spleen", "setting": "Spleen, 4 h", "result": "0.42 ± 0.16", "unit": "% ID/g"}, {"measurement": "% ID/g (24 h) Spleen", "setting": "Spleen, 24 h", "result": "0.53 ± 0.25", "unit": "% ID/g"}, {"measurement": "% ID/g (72 h) Spleen", "setting": "Spleen, 72 h", "result": "0.24 ± 0.08", "unit": "% ID/g"}, {"measurement": "% ID/g (4 h) Stomach", "setting": "Stomach, 4 h", "result": "0.57 ± 0.16", "unit": "% ID/g"}, {"measurement": "% ID/g (24 h) Stomach", "setting": "Stomach, 24 h", "result": "0.28 ± 0.17", "unit": "% ID/g"}, {"measurement": "% ID/g (72 h) Stomach", "setting": "Stomach, 72 h", "result": "0.1 ± 0.02", "unit": "% ID/g"}, {"measurement": "% ID/g (4 h) Tumor", "setting": "Tumor, 4 h", "result": "6.93 ± 0.71", "unit": "% ID/g"}, {"measurement": "% ID/g (24 h) Tumor", "setting": "Tumor, 24 h", "result": "22.56 ± 1.81", "unit": "% ID/g"}, {"measurement": "% ID/g (72 h) Tumor", "setting": "Tumor, 72 h", "result": "7.23 ± 4.46", "unit": "% ID/g"}, {"measurement": "ratio of tumor AUC verse normal organ AUC", "setting": "compared to ^177Lu—C2", "result": "significantly improved"}]}]}
